Experiment: DPPH (2,2-diphenyl-1-picrylhydrazyl) radical scavenging antioxidant test
Type: biochemical
Conditions: 517 nm; for Inhibition (radical scavenging inhibition): 0.2 mL DPPH (0.75 mM), compound 3 μM in ethanol, 30 minutes in the dark
Description: The antioxidant properties of the 8-(2-hydroxybenzylideneamino)naphthalene-1,3-disulfonic acid compound were studied by adding 0.2 mL DPPH (0.75 mM)) to 8-(2-hydroxybenzylideneamino)naphthalene-1,3-disulfonic acid (III) (3 μM) in ethanol. After 30 minutes of incubation in the dark, the absorbance was read against a blank at 517 nm. Ascorbic acid (vitamin C) was used as standard antioxidants (positive control). A blank sample was prepared by 0.2 ml of DPPH in 3 mL ethanol. A negative control sample was run using ethanol instead of the sample. The radical scavenging inhibition was calculated using the following equation: […]
The antioxidant activity for the synthesized compound is listed in Table 1, using Vitamin C as a reference.

Structure (SMILES) | Inhibition (radical scavenging inhibition) [%] | antioxidant potential compared to vitamin C (in words) (DPPH in vitro test, vitamin C as positive control)
O=S(=O)(O)c1cc(S(=O)(=O)O)c2c(/N=C/c3ccccc3O)cccc2c1 [Product III, 8-(2-hydroxybenzylideneamino)naphthalene-1,3-disulfonic acid] | 54 | high potential as an antioxidant
O=C1O[C@H]([C@@H](O)CO)C(O)=C1O [vit c, Ascorbic acid, reference compound] | 74 | 

Reference: patent publication US11912652B1, “8-(2-hydroxybenzylideneamino)naphthalene-1,3-disulfonic acid as an antioxidant compound” (KING FAISAL UNIVERSITY, priority 2023, dated 2024)
